Experimental data reported in patent US7528124B2, “1,3-dihydro-2H-indol-2-one derivative” (Taisho Pharmaceutical Co., Ltd., priority 2003, dated 2009).
Read-outs that look alike come from different tables or passages of the source.

Test: Measurement of drug concentration in plasma and brain following oral administration to rats (LC/MS/MS)
Type: in vivo, Sprague-Dawley rats
Conditions: rat; for concentration at 1 h: Table 2, 1 hour after administration
Description: Measurement of Drug Concentration in Plasma and Brain following Oral Administration to Rats
The compound of Example 1 and compound A (WO01/55130, listed in EXEMPLE 1) were orally administered to Sprague-Dawley rats (male, 8 weeks) at a dose of 5 mL/kg (10 mg/kg) as solutions (each compound was dissolved with 0.03 mol/L HCl containing 5% Cremophor EL, and concentration was prepared by 2 mg/ml).
Blood was collected from the tail vein at 1 and 2 hours after administration. Immediately the brain was excised, 20% homogenate was prepared with distilled water, for assay sample. Similarly, 0.3 mL of blood was collected from the tail vein at 2, 4, 8, and 24 hours following administration, and the plasma following centrifugation was used as a sample.
The concentrations of the compound of Example 1 and compound A in plasma were measured using liquid chromatography tandem mass spectrometry (LC/MS/MS). Specifically, 200 μL of acetonitrile was added to 50 μL of plasma or brain homogenate, vortex mixed and centrifuged. The resulting supernatant was put in a liquid chromatograph with an Agilent Zorbax SB-C18 5 μm column (50 mm long, 2.1 mm in diameter). The elute was 0.1% acetic acid/acetonitrile containing 0.1% acetic acid. The MS/MS detection were performed using a Sciex API3000 LC/MS/MS system with ESI for ionization, in positive ions and MRM mode for monitoring. The m/z 632→472 and m/z 630→472 were monitored for the compound of Example 1 and compound A, respectively.
The concentration of plasma and brain at each sampling point and mean plasma levels after oral administration were shown in Table 2 and Table 3, respectively.

`COc1ccc(S(=O)(=O)N2C(=O)C(c3ccccc3OC)(N3C[C@H](F)C[C@H]3C(=O)N(C)C)c3cc(Cl)ccc32)c(OC)c1` (single isomer, unassigned) [Example 1] showed a concentration at 1 h (male, Sprague-Dawley, brain, po, 10 mg/kg, brain homogenate, average of three, read-out: Drug concentration, brain, 1 hour) of 35 ng/g, a concentration at 1 h (male, Sprague-Dawley, plasma, po, 10 mg/kg, average of three, read-out: Drug concentration, plasma, 1 hour) of 440 ng/mL and a concentration at 2 h (male, Sprague-Dawley, plasma, po, 10 mg/kg, Table 2, 2 hours after administration, average of three, read-out: Drug concentration, plasma, 2 hours) of 219 ng/mL. For the same compound, the concentration at 2 h (male, Sprague-Dawley, plasma, po, 10 mg/kg, Table 3, serial tail vein sampling, 2 hours, average of three, read-out: Drug concentration in plasma, 2 hours) was 139 ng/mL, the concentration at 4 h (male, Sprague-Dawley, plasma, po, 10 mg/kg, Table 3, serial tail vein sampling, 4 hours, average of three) was 51 ng/mL and the concentration at 8 h (male, Sprague-Dawley, plasma, po, 10 mg/kg, Table 3, serial tail vein sampling, 8 hours, average of three) was 10 ng/mL. The concentration at 2 h (male, Sprague-Dawley, Table 2, oral 10 mg/kg, 2 hours after administration, brain homogenate, average of three, ND: below the quantification detection limit of 5 ng/mL, read-out: Drug concentration, brain, 2 hours) was 11 ng/g, the “plasma levels compared with compound A” value (oral 10 mg/kg, after 2 hours) was “higher plasma levels” and the “brain levels compared with compound A” value (oral 10 mg/kg, at 1 and 2 hours) was “higher than those of compound A”.
